Holding throughout (experiment): Yeast growth assay, specificity profiling
What all share (type): cell-based
Common to all, as to design: key: “−” indicates no growth restoration i.e. no activity against the particular kinase; “+”, “++”, and “+++” indicate activity detected by restoration of growth, classified into three categories of potency; “+”, “++”, and “+++” indicate activity detected by restoration of growth, classified into three categories of potency; “+”, “++”, and “+++” indicate activity detected by restoration of growth, classified into three categories of potency
What all share (conditions): 7 concentrations between 0.2 and 100 μM

The target of one assay is T1, EphB2 (Homo sapiens, UniProt P29323).
T1 construct: expressed in transfected cells; host or cells: yeast
T1 sequence (P29323 19-1055): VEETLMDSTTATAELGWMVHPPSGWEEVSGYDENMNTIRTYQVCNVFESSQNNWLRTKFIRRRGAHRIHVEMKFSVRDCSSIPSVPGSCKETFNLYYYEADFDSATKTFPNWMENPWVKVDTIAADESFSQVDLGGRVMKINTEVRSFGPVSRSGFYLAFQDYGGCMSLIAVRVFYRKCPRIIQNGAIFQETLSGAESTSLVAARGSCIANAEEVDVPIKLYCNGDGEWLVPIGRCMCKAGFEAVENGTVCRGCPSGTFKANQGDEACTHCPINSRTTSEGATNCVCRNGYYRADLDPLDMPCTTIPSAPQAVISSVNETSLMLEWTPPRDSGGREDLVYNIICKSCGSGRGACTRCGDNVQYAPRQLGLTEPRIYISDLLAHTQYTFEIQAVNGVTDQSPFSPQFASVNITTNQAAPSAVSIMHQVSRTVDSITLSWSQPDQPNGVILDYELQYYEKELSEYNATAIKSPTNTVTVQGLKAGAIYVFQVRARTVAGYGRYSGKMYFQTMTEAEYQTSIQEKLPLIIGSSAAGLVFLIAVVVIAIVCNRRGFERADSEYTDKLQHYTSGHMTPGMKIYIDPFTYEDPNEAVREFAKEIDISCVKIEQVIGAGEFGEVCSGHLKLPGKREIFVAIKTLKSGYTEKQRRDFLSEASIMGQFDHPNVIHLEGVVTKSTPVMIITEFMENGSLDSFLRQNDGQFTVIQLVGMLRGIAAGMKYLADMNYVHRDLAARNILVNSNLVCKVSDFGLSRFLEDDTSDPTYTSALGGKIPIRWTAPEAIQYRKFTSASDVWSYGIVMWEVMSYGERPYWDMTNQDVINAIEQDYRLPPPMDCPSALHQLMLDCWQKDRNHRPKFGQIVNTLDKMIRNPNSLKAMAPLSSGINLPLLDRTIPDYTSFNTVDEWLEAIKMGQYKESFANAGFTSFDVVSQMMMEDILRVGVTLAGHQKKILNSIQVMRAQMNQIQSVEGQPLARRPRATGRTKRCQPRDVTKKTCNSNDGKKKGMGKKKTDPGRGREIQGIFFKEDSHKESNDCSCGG
On the procedure: (§1) Specificity Profiling: Yeast Growth Assay
(§2) The yeast growth assay was performed as described in “Method for the identification and/or validation of receptor tyrosine kinase inhibitors” PCT/CH03/00694 (2004/10/24), section “Modes for Carrying out the Invention, Experiment 1 and Experiment 2.
(§3) Briefly, yeast cells carrying plasmids with the RTK of interest were grown in glucose containing medium (repressing expression). The cultures were diluted into galactose containing medium, which induces the expression of the kinase. Expression of the kinase inhibits growth of the yeast cells, which allows for positive selection of kinase inhibitors restoring growth of cells. Compounds were titrated at 7 concentrations between 0.2 and 100 μM.
(§4) Specificity profiling of compounds, using the yeast growth assay method described above. “−” indicates no growth restoration i.e. no activity against the particular kinase, “+”, “++”, and “+++” indicate activity detected by restoration of growth, classified into three categories of potency according to the maximal level of growth restoration reached and the concentration at which the maximal growth restoration is reached.

In another assay the target is T2, IGF-1R (Homo sapiens, UniProt P08069).
T2 construct: expressed in transfected cells; host or cells: yeast
On the procedure:
as §1, §2, §3, §4

The next assay deals with T3, InsR (Homo sapiens, UniProt P06213).
T3 construct: expressed in transfected cells; host or cells: yeast
On the procedure:
as §1, §2, §3, §4

The target of another assay is T4, RET (Homo sapiens, UniProt P07949).
T4 construct: expressed in transfected cells; host or cells: yeast
On the procedure: as §1, §2, §3, §4

In another assay the target is T5, TEK (Homo sapiens, UniProt Q02763).
T5 construct: expressed in transfected cells; host or cells: yeast
As to the method:
as §1, §2, §3, §4

The target of the next assay is T6, VEGFR1 (Homo sapiens, UniProt P17948).
T6 construct: expressed in transfected cells; host or cells: yeast
On the procedure:
as §1, §2, §3, §4

For a further assay, the target named is T7, VEGFR2 (Homo sapiens, UniProt P35968).
T7 construct: expressed in transfected cells; host or cells: yeast
On the procedure: as §1, §2, §3, §4

The structures appear in SMILES notation.

T7 sequence (P35968 20-1356): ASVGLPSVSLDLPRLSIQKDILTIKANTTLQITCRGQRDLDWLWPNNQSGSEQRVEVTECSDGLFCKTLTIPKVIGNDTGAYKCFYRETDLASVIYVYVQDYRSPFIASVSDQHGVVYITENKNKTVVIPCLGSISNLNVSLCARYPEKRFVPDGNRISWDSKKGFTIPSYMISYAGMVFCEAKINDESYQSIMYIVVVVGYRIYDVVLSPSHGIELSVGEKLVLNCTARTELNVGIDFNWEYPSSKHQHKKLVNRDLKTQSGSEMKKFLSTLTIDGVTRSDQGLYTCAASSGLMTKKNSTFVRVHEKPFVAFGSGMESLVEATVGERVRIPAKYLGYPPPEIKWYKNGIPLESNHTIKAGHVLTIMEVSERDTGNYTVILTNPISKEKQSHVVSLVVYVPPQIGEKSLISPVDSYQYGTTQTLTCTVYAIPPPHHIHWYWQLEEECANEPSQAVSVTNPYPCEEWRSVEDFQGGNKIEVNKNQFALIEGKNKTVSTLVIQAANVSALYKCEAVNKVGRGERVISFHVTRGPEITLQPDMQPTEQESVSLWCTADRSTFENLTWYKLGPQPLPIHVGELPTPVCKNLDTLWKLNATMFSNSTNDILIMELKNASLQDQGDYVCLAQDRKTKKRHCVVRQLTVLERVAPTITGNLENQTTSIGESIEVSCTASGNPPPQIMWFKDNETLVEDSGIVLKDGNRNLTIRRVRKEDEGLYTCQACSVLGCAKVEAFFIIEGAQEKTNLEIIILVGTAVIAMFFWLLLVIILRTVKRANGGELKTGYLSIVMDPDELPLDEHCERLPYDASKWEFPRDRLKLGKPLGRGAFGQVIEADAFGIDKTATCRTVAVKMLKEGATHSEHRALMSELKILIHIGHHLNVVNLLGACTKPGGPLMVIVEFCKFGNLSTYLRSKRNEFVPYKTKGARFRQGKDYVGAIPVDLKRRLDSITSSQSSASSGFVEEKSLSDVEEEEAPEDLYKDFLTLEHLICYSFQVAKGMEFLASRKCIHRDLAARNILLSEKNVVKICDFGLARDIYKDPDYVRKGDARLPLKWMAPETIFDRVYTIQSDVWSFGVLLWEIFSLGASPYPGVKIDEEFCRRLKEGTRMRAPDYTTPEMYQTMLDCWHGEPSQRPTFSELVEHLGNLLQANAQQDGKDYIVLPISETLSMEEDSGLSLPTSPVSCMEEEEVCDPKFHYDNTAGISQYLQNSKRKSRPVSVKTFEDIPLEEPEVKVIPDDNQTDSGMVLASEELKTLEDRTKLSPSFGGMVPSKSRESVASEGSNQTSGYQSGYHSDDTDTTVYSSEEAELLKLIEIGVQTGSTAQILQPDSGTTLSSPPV
T2 sequence (P08069 31-1367): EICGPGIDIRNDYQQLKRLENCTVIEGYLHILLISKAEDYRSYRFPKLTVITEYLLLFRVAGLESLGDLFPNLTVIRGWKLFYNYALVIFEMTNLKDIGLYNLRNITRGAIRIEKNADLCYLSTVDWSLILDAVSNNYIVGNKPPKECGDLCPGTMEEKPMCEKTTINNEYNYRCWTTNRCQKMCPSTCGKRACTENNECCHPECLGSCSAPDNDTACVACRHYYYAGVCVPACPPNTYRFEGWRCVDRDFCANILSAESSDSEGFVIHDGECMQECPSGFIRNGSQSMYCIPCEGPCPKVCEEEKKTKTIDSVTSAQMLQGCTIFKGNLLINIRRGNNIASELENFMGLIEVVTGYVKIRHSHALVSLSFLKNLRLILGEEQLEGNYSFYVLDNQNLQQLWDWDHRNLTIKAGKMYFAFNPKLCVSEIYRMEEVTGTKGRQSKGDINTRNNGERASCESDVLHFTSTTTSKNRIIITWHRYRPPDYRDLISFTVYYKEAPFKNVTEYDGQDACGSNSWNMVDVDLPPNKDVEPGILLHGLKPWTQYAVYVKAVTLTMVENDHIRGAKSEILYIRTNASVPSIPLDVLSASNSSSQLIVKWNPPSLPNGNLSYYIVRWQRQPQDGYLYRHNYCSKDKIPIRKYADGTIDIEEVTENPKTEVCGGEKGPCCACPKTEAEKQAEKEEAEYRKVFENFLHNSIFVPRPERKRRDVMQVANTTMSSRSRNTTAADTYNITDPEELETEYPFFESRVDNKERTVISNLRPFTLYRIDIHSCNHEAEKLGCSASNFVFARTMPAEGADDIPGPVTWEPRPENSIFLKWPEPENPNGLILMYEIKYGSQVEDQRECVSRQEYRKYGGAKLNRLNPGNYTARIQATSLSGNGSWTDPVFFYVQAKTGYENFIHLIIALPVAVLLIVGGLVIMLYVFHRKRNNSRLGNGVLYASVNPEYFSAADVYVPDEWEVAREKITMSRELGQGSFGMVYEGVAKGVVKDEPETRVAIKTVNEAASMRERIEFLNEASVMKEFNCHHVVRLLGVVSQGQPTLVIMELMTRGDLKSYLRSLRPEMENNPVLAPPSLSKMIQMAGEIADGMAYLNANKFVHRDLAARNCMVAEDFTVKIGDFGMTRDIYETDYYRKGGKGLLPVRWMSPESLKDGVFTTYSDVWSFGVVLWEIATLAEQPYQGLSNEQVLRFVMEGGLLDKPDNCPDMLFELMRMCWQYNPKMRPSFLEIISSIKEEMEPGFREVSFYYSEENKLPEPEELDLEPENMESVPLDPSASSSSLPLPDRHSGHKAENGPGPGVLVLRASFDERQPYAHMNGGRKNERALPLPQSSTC
T4 sequence (P07949 29-1114): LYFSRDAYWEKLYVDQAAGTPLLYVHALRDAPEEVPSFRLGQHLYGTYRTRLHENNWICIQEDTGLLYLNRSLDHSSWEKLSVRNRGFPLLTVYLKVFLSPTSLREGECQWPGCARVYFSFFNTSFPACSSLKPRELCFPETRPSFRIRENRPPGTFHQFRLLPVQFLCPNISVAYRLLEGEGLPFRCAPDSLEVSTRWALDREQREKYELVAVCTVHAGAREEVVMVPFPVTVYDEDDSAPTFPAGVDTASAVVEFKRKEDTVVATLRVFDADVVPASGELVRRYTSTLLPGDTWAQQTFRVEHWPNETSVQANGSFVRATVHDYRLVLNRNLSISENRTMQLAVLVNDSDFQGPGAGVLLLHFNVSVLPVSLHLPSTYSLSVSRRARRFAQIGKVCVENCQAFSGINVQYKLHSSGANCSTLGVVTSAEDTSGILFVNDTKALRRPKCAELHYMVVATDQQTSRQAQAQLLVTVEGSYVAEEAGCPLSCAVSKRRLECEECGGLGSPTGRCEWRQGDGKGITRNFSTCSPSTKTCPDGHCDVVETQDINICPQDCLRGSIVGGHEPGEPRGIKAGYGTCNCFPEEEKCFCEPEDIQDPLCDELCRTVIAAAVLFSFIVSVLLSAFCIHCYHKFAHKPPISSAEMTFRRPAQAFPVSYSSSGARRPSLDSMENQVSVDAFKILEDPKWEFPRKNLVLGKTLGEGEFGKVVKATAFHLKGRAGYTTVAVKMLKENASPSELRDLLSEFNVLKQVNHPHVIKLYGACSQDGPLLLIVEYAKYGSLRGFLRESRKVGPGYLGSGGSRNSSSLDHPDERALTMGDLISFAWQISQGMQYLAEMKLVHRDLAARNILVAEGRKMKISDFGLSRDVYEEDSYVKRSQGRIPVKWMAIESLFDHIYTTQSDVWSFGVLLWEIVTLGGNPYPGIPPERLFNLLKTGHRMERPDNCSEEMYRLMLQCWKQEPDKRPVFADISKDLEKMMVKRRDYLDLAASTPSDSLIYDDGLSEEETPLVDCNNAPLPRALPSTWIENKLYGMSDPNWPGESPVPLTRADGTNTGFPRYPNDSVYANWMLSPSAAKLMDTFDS
T6 sequence (P17948 27-1338): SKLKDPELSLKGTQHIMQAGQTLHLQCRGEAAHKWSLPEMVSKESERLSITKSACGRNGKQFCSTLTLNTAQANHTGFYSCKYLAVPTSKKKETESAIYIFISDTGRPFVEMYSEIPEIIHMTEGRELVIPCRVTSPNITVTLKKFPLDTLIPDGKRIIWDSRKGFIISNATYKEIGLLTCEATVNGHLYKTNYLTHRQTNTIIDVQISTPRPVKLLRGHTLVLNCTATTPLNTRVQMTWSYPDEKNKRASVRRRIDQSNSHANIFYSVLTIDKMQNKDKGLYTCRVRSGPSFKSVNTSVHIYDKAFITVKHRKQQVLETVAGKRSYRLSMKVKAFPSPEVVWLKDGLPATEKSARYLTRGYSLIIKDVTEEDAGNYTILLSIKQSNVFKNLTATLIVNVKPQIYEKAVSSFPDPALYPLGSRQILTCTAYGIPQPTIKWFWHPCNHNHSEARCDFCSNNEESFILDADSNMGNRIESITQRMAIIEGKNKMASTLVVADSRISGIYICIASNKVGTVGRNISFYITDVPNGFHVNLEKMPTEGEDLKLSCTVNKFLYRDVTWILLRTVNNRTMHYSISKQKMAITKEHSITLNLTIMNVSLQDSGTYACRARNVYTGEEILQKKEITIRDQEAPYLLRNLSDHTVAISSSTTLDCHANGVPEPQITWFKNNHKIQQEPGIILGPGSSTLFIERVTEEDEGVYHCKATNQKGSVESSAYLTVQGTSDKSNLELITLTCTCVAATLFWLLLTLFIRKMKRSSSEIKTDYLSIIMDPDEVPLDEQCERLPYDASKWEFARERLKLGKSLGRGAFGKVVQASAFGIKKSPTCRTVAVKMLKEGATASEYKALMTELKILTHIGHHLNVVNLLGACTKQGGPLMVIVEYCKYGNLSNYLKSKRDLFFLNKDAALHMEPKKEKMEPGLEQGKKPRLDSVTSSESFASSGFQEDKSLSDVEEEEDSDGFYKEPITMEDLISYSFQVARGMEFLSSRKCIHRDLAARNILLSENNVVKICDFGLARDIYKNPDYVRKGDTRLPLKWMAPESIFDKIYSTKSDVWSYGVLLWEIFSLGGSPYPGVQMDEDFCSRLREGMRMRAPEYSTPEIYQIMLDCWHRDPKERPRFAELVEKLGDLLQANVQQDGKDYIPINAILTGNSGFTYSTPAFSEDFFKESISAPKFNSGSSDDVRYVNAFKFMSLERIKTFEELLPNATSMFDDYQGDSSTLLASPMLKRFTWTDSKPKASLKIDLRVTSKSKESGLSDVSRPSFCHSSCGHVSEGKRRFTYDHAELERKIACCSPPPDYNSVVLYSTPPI

Take `COc1cccc(-c2nc3c(C)nccn3c2Nc2cccc(Cl)c2)c1` [compound 48, (3-Chloro-phenyl)-[2-(3-methoxy-phenyl)-8-methyl-imidazo[1,2-a]pyrazin-3-yl]-amine]: the EphB2 growth restoration result at EphB2 is “+++”. Moreover, the IGF-1R growth restoration result on IGF-1R was “−”. Further, the InsR growth restoration result at InsR is on record as “−”. For the same molecule, the RET growth restoration entry at RET is given as “−”. Also, the TEK growth restoration result on TEK is on record as “−”. For the same molecule, at VEGFR1, the VEGFR1 growth restoration result was “−”. In addition, the VEGFR2 growth restoration entry at VEGFR2 is listed as “−”.
